Assay results published in patent US5310726A, “Lipopeptide compounds” (Merck & Co., Inc., priority 1990, dated 1994).

Key:
[1] = Stability in aqueous media; type: physicochemical; conditions: physiological pH range
Candida tropicalis = test: Microdilution broth assay, minimum fungicidal concentration; type: cell-based; conditions: Candida tropicalis MY 1012
Method: The usefulness of the compounds as antifungal agents particularly, for the treatment of mycotic infections may be illustrated with minimum fungicidal concentration (MFC) results with Compound IA in tests against Candida albicans, Candida tropicalis and Candida parapsilosis. The activity may be seen in a microdilution broth assay employing Yeast Nitrogen Base (Difco) with 10% dextrose (YNBD) as the medium. […] The compounds were then diluted to 256 μg/ml in YNBD. 0.15 ml of the suspension was dispensed to the top row of a 96-well plate (each well containing 0.15 ml of YNDB) resulting in a drug concentration of 128 μg/ml. Two-fold dilutions were then made from the top row to obtain final drug concentrations ranging from 128 to 0.06 μg/ml. The yeast cultures, maintained on Sabouraud dextrose agar were transferred to YM broth (Difco) and incubated overnight at 35° C. with shaking (250 rpm). After incubation, each culture was diluted in sterile water to yield a final concentration of 1-5×10^6 colony forming units (CFU)/ml. 96-well microplates were inoculated using a MIC-2000 (Dynatech) which delivers […] per well yielding a final inoculum per well of 1.5-7.5×10^3 cells. […] The minimum inhibitory concentrations (MICS) were recorded as the lowest concentrations of drug showing no visible growth. […] The inoculated trays were incubated 24 hours at 28° C. and then read. […]

Candida albicans = test: as above; type: cell-based
Source text: (§1) The usefulness of the compounds as antifungal agents particularly, for the treatment of mycotic infections may be illustrated with minimum fungicidal concentration (MFC) results with Compound IA in tests against Candida albicans, Candida tropicalis and Candida parapsilosis.
(§2) The activity may be seen in a microdilution broth assay employing Yeast Nitrogen Base (Difco) with 10% dextrose (YNBD) as the medium. In carrying out the assay, Compound Ia was solubilized in 10 percent dimethyl sulfoxide (DMSO) and diluted to 2560 μg/ml. The compounds were then diluted to 256 μg/ml in YNBD. 0.15 ml of the suspension was dispensed to the top row of a 96-well plate (each well containing 0.15 ml of YNDB) resulting in a drug concentration of 128 μg/ml. Two-fold dilutions were then made from the top row to obtain final drug concentrations ranging from 128 to 0.06 μg/ml.
(§3) The yeast cultures, maintained on Sabouraud dextrose agar were transferred to YM broth (Difco) and incubated overnight at 35° C. with shaking (250 rpm). After incubation, each culture was diluted in sterile water to yield a final concentration of 1-5×10^6 colony forming units (CFU)/ml.
(§4) 96-well microplates were inoculated using a MIC-2000 (Dynatech) which delivers […] per well yielding a final inoculum per well of 1.5-7.5×10^3 cells. The microplates were incubated at 35° C. for 24 hours. The minimum inhibitory concentrations (MICS) were recorded as the lowest concentrations of drug showing no visible growth.
(§5) After recording the MIC, the plates were shaken to resuspend the cells. Thereafter, […] samples from the wells in the 96-well microplate were transferred to a single well tray containing Sabouraud dextrose agar. The inoculated trays were incubated 24 hours at 28° C. and then read. The MFC is defined as the lowest concentration of drug showing no growth or less than 4 colonies per spot.

Candida parapsilosis = test: as above; type: cell-based
Source text: as §1, §2, §3, §4, §5

Row | Substance | stability in aqueous medium [1] | Minimum Fungicidal Concentration (Candida tropicalis) [µg/mL] | Minimum Fungicidal Concentration (Candida albicans; Candida albicans MY 1028) [µg/mL] | Minimum Fungicidal Concentration (Candida albicans; Candida albicans MY 1055) [µg/mL] | Minimum Fungicidal Concentration (Candida albicans; Candida albicans MY 1208) [µg/mL] | Minimum Fungicidal Concentration (Candida albicans; Candida albicans MY 1585) [µg/mL] | Minimum Fungicidal Concentration (Candida albicans; Candida albicans MY 1750) [µg/mL] | Minimum Fungicidal Concentration (Candida albicans; Candida albicans MY 1783) [µg/mL] | Minimum Fungicidal Concentration (Candida parapsilosis; Candida parapsilosis MY 1008) [µg/mL] | Minimum Fungicidal Concentration (Candida parapsilosis; Candida parapsilosis MY 1010) [µg/mL]
1 | 1-[4-hydroxy-N^2 -(10,12-dimethyl-1-oxo-tetradecyl)ornithine]-5-[3-hydroxy-glutamine]echino candin B [Compound Ib] | exhibit the stability in aqueous medium desired | – | – | – | – | – | – | – | – | –
2 | 1-[4-hydroxy-N^2 -(10,12-dimethyl-1-oxo-tetradecyl)ornithine]-4-[3-hydroxy-homotyrosine]-5- [3-hydroxy-glutamine]echinocandin B [Compound Ia] | exhibit the stability in aqueous medium desired | 1 | 0.5 | 1 | 2 | 0.25 | 0.25 | 0.5 | 8 | 4
